Laboratory results: US8338582B2, “Anti-HIV immunogens and methods for inducing an immune response” (Fundacao de Amparo a Pesquisa do Estado de Sao Paulo, priority 2005, dated 2012)
Read-outs that look alike come from different tables or passages of the source.

What was measured:
[1] = system: peripheral blood mononuclear cells from HIV-1 seronegative individuals; details: for IFN-γ spots/10^6 PBMC, Average (AV): average of 8 seronegative individuals; for IFN-γ spots/10^6 PBMC, Average (AV) / IFN-γ spots/10^6 PBMC: peptide 5 μM; for IFN-γ spots/10^6 PBMC, AV + 3SD: average plus 3 standard deviations, 8 seronegative individuals
Procedure: (§1) Step d) is achieved by synthesizing the peptides representing the epitopes of the present invention, followed by ELISPOT assay to detect IFN-γ-producing cells. For the purposes of the present invention, the positivity cutoff value used is ≧30 SFC IFN-γ/10^6 PBMC, calculated based on the levels of responses of HIV-1 seronegative patients
(§2) Synthetic peptide stocks were diluted to 25 mg/mL in dimethylsulphoxide, followed by ELISPOT assays for detection of IFN-γ-producing cells in response to the epitopes using peripheral blood mononuclear cells (PBMC) in 34 HIV-1+ patients of several clinical groups, long-term nonprogressors (LTNP), reconsituted, partial controllers, and progressors. Each epitope was tested in a concentration of 5 μM. The cryopreserved cells were maintained in culture for 16 hours, placed on plates in the presence of the epitopes, incubated for a further 18 hours, washed and ELISPOT plates were developed for the identification of spot-forming cells/Interferon-γ-producing cells (IFN-γ SFC), which were then counted in an automated counter (Zeiss KS ELISpot/Axioplan 2).

[2] = system: peripheral blood mononuclear cells (PBMC) in 34 HIV-1+ patients; details: 5 μM, positive ≧30 SFC IFN-γ/10^6 PBMC
Procedure: as §1, §2

Sequence	IFN-γ spots/10^6 PBMC, Average (AV) [1] [spots/10^6 PBMC]	IFN-γ spots/10^6 PBMC, AV + 3SD [1] [spots/10^6 PBMC]	IFN-γ spots/10^6 PBMC ([1]; seronegative individual C#01) [spots/10^6 PBMC]	IFN-γ spots/10^6 PBMC ([1]; seronegative individual C#02) [spots/10^6 PBMC]	IFN-γ spots/10^6 PBMC ([1]; seronegative individual C#03) [spots/10^6 PBMC]	IFN-γ spots/10^6 PBMC ([1]; seronegative individual C#04) [spots/10^6 PBMC]	IFN-γ spots/10^6 PBMC ([1]; seronegative individual C#05) [spots/10^6 PBMC]	IFN-γ spots/10^6 PBMC ([1]; seronegative individual C#06) [spots/10^6 PBMC]	IFN-γ spots/10^6 PBMC ([1]; seronegative individual C#07) [spots/10^6 PBMC]	IFN-γ spots/10^6 PBMC ([1]; seronegative individual C#08) [spots/10^6 PBMC]	percentage of HIV-1+ patients recognizing the individual peptide [2] [%]
NTSYRLISCNTSVI [env 4]	5.2	24.6	0	7	15	2	3	0	0	15	–
ELLKTVRLIKFLYQSNP [rev 1]	3	12.9	5	7	5	7	0	0	0	0	–
EAIIRILQQLLFIHF [vpr 2]	4.6	24.2	0	12	15	0	0	0	0	10	–
QQLLFIHFRIGCRHSRIG [vpr 3]	1.9	12.3	0	8	7	0	0	0	0	0	–
VLAIVALVVATIIAI [vpu 1]	3.7	16.2	0	0	7	7	0	0	6	10	–
SPEVIPMFSALSE [gag 2]	0.9	6.3	0	2	0	0	0	0	0	5	–
VLEWRFDSRLAFHHV [nef 1]	4.4	17.7	0	3	7	12	8	0	0	5	–
SLQYLALVALVAPKK [vif 2]	3.1	19.7	0	8	2	0	0	0	0	15	–
GKIILVAVHVASGYI [pol 3]	0.2	2.4	0	2	0	0	0	0	0	0	–
SELYLYKVVKIEPLGVAP [env 5]	0.6	5.9	0	0	5	0	0	0	0	0	–
ALFYKLDVVPID [env 3]	1.5	10	5	0	0	7	0	0	0	0	–
TMLLGMLMICSAA [env 2]	3.4	19.7	0	7	5	0	0	0	0	15	–
QRPLVTIKIGGQLKE [pol 1]	5.1	26.9	0	0	20	12	3	0	1	5	44
DKELYPLASLRSLFG [gag 4]	3.7	17.4	0	0	5	12	8	0	0	5	–
EELRSLYNTVATLYCVH [gag 1]	1.7	10.0	0	7	0	2	0	0	0	5	–
KRWIILGLNKIVRMYSPTSI [gag 3]	3.6	20	0	12	5	12	0	0	0	0	–
